US9187762B2, “Compositions and methods comprising sequences having hydroxyphenylpyruvate dioxygenase (HPPD) activity” (PIONEER HI-BRED INTERNATIONAL, INC., priority 2010, dated 2015)

Key:
soybean plants = assay: Herbicide spray tests of transgenic HPPD soy plants (T1/T2) with multiple HPPD-inhibitor herbicides, visual injury; format: in vivo; conditions: for Soybean Response (% Injury): Elite Line Nontransgenic, foliar, V1 stage; for Soybean Response (% Injury), Null: T1 soybean PHP45921A D0223903 SEQ ID NO: 3, null segregants; for Soybean Response (% Injury), Positive: T1 soybean PHP45921A D0223903 SEQ ID NO: 3, positive segregants
Experimental: T1 plants were evaluated for zygosity. Homozygous single-locus transgenic plants and their corresponding null segregants were identified and T2 true breeding seed was obtained from each. Plants were grown to the V1 to V2 growth stage and then sprayed with the commercial formulation of mesotrione, tembotrione, topramezone, and isoxaflutole. All treatments were applied with nonionic surfactant and ammonium sulfate in a spray volume of 374 L/ha. Multiple rates of each herbicide were applied so a response range could be used to compare the relative tolerance of the different herbicides as well as the relative tolerance of homozygous nulls and positives for each event. The herbicide response for individual treated plants was evaluated by comparing to untreated plants of similar genetic background. Herbicide response ratings were eight days after treatment. Visual injury was on a scale of 0 to 100% injury (0=no effect to 100=dead plant).
T1 soybean plants expressing D0223903 (SEQ ID NO: 3) driven by a synthetic promoter (as described in U.S. Pat. No. 6,072,050) were evaluated with qPCR for the presence of the transgene and null and positive segregants selected. Plants were sprayed at the V1 growth stage with the commercial formulations of mesotrione, tembotrione, topramezone, and isoxaflutole. Two rates of each herbicide were applied foliarly with nonionic surfactant and ammonium sulfate in a spray volume of 374 L/ha. The herbicide response for individual plants was determined by comparing to untreated plants of similar genetic background. Visual injury was on a scale of 0 to 100% injury (0=no effect to 100=dead plant).

maize HPPD [1] = assay: HPPD activity, coupled assay with HGD at 320 nm; substrate saturation kinetics (KM, kcat); format: biochemical; conditions: maize HPPD, wt and variant
Description: HPPD catalyzes the conversion of 4-hydroxyphenylpyruvate (HPP) to homogentisate. See, FIG. 1. […] However, the product of the ensuing reaction in tyrosine metabolism, maleylacetoacetate, absorbs strongly at 320 nm. Furthermore, the enzyme catalyzing that reaction is also a dioxygenase having similar mechanism and buffer requirements as HPPD, making homogentisate dioxygenase (HGD) an ideal partner in a coupled assay, as shown.
The HDG gene from Pseudomonas aeruginosa (Amaya (2004) Arch Biochem Biophys 421, 135-142) was cloned into pVER7062 and electroporated into E. coli strain BL21(DE3). The enzyme was produced by methods similar to those described for HPPD. The purified enzyme has a KM for homogentisate of 23 uM and a kcat of 100/sec, properties highly suited for instantly converting the homogentisate produced by HPPD to maleylacetoacetate.
HPPD activity was measured by placing an aliquot (e.g., 6 ul) of the substrate HPP at 50-fold the desired final concentration into the wells of a low UV-absorbing assay plate. Reactions were started by adding a mixture (e.g., 294 ul) containing 25 mM Hepes, pH 7, 2 mM ascorbate, 10 uM FeSO4, 1 to 100 uM HPP, 50 nM HGD and 5 to 240 nM HPPD. Absorbance at 320 nm was monitored continuously in a plate-reading spectrophotometer (Spectramax, Molecular Devices).
The catalytic performance of wild-type HPPD and variants generated by shuffling was assessed by determining the substrate saturation parameters. The Michaelis-Menten kinetics protocol of the Spectramax software was customized for HPP concentrations ranging from 3.33 uM to 100 uM, or up to 1 mM if required. Reaction rates were measured as described above for each concentration of HPP. The software returns values of KM and Vmax using the Lineweaver-Burke transformation of the Michaelis-Menten equation.

maize HPPD [2] = assay: ON rate ratio, OFF rate ratio and insensitivity parameter with herbicidal HPPD inhibitors; format: biochemical; conditions: maize HPPD
Description: To devise a parameter for detecting changes in inhibitor binding affinity, KD, one can utilize the relationship between KD and the rates of binding and release of inhibitor to and from the enzyme. [formula] Higher KD (reduced affinity or increased insensitivity) can be attained with a numerically smaller ON rate, a larger OFF rate or both. […] The ratio of the reaction rate with inhibitor to that without inhibitor during the 70 to 90 second interval of the reaction was termed the “ON rate ratio”. […] Incubations with the same concentrations of enzyme but no mesotrione were done in parallel. After 1 hr at room temperature, 5 to 10 ul of the enzyme-inhibitor complex was dispensed into the wells of the assay plate. Reactions were started with the addition of 290 to 295 ul of 25 mM Hepes, pH 7, 2 mM ascorbate, 10 uM FeSO4, 100 uM HPP and 50 nM HGD. The reactions were monitored at 320 nm for 12 min. Reaction velocity accelerates as inhibitor is released from the enzyme until a steady state is reached, during which the reaction velocity is constant. The ratio of the steady state rate in mixtures containing mesotrione (or other herbicidal inhibitor) to the initial velocity of mixtures lacking inhibitor is termed the “OFF rate ratio”. Another parameter to record is the time span required for the reactions with inhibitor to reach the steady state. […] It is not certain that the steady state attained in the OFF rate reactions actually represents an equilibrium where OFF rates are now equal to ON rates. Because substrate and inhibitors bind in the same site, the high concentration of substrate present may competitively trap the inhibitor and prevent it from binding again. To be sure that improvement in ON rates is being taken into account, the ON and OFF rate ratios were multiplied together and the product is termed the “insensitivity parameter”. […] The variants in Table 9 were grouped according to the parameter in which they are improved compared to wild type. The sequence positions are numbered according to the wild-type maize amino acid sequence of SEQ ID 1. Some substitutions are effective in multiple contexts, as discussed in the next section.

S. bicolor HPPD = assay: ON/OFF rate ratio insensitivity parameters of HPPD with maize motif substitutions; format: biochemical, Sorghum bicolor
Experimental: [formula] Higher KD (reduced affinity or increased insensitivity) can be attained with a numerically smaller ON rate, a larger OFF rate or both. […] The ratio of the reaction rate with inhibitor to that without inhibitor during the 70 to 90 second interval of the reaction was termed the “ON rate ratio”. […] Incubations with the same concentrations of enzyme but no mesotrione were done in parallel. After 1 hr at room temperature, 5 to 10 ul of the enzyme-inhibitor complex was dispensed into the wells of the assay plate. Reactions were started with the addition of 290 to 295 ul of 25 mM Hepes, pH 7, 2 mM ascorbate, 10 uM FeSO4, 100 uM HPP and 50 nM HGD. The reactions were monitored at 320 nm for 12 min. Reaction velocity accelerates as inhibitor is released from the enzyme until a steady state is reached, during which the reaction velocity is constant. The ratio of the steady state rate in mixtures containing mesotrione (or other herbicidal inhibitor) to the initial velocity of mixtures lacking inhibitor is termed the “OFF rate ratio”. Another parameter to record is the time span required for the reactions with inhibitor to reach the steady state. […] It is not certain that the steady state attained in the OFF rate reactions actually represents an equilibrium where OFF rates are now equal to ON rates. Because substrate and inhibitors bind in the same site, the high concentration of substrate present may competitively trap the inhibitor and prevent it from binding again. To be sure that improvement in ON rates is being taken into account, the ON and OFF rate ratios were multiplied together and the product is termed the “insensitivity parameter”.

| Molecule | Soybean Response (% Injury) (soybean plants; rate 26.25 g ai/ha) [%] | Soybean Response (% Injury), Null (soybean plants; rate 26.25 g ai/ha) [%] | Soybean Response (% Injury), Positive (soybean plants; rate 26.25 g ai/ha) [%] | Soybean Response (% Injury) (soybean plants; rate 105 g ai/ha) [%] | Soybean Response (% Injury) (soybean plants; rate 210 g ai/ha) [%] | Soybean Response (% Injury), Null (soybean plants; rate 105 g ai/ha) [%] | Soybean Response (% Injury), Null (soybean plants; rate 210 g ai/ha) [%] | Soybean Response (% Injury), Positive (soybean plants; rate 105 g ai/ha) [%] | Soybean Response (% Injury), Positive (soybean plants; rate 210 g ai/ha) [%] | other results |
| --- | --- | --- | --- | --- | --- | --- | --- | --- | --- | --- |
| CS(=O)(=O)c1cc(C(F)(F)F)ccc1C(=O)c1cnoc1C1CC1 [Isoxaflutole] | 72 | 78 | 5 | – | – | – | – | – | – | Soybean Response (% Injury) (soybean plants; rate 13.12 g ai/ha): 70%; Soybean Response (% Injury), Null (soybean plants; rate 13.12 g ai/ha): 80%; Soybean Response (% Injury), Positive (soybean plants; rate 13.12 g ai/ha): 15% |
| CS(=O)(=O)c1ccc(C(=O)C2C(=O)CCCC2=O)c([N+](=O)[O-])c1 [Mesotrione] | – | – | – | 65 | 75 | 80 | 83 | 10 | 20 | – |
| CS(=O)(=O)c1ccc(C(=O)C2C(=O)CCCC2=O)c(Cl)c1COCC(F)(F)F [Tembotrione] | – | – | – | 70 | 78 | 75 | 75 | 40 | 33 | – |
| Cc1c(C(=O)c2cnn(C)c2O)ccc(S(C)(=O)=O)c1C1=NOCC1 [Topramezone] | 78 | 75 | 5 | – | – | – | – | – | – | Soybean Response (% Injury) (soybean plants; rate 52.5 g ai/ha): 78%; Soybean Response (% Injury), Null (soybean plants; rate 52.5 g ai/ha): 78%; Soybean Response (% Injury), Positive (soybean plants; rate 52.5 g ai/ha): 20% |
| SEQ ID NO: 1 (protein, Zea mays) MGPTPTAAAAGAAVAAASAAEQAAFRLVGHRNFVRFNPRSDRFHTLAFHHVELWCADAASAAGRFSFGLGAPLAARSDLSTGNSAHASLLLRSGSLSFLFTAPYAHGADAATAALPSFSAAAARRFAADHGLAVRAVALRVADAEDAFRASVAAGARPAFGPVDLGRGFRLAEVELYGDVVLRYVSYPDGAAGEPFLPGFEGVASPGAADYGLSRFDHIVGNVPELAPAAAYFAGFTGFHEFAEFTTEDVGTAESGLNSMVLANNSENVLLPLNEPVHGTKRRSQIQTFLDHHGGPGVQHMALASDDVLRTLREMQARSAMGGFEFMAPPTSDYYDGVRRRAGDVLTEAQIKECQELGVLVDRDDQGVLLQIFTKPVGDRPTLFLEIIQRIGCMEKDEKGQEYQKGGCGGFGKGNFSQLFKSIEDYEKSLEAKQAAAAAAAQGS | – | – | – | – | – | – | – | – | – | Km (maize HPPD [1]): 5.2 µM; kcat (maize HPPD [1]): 201; OFF ratio (maize HPPD [2]; Mesotrione): 0.255; ON ratio (maize HPPD [2]; Mesotrione): 0.189; ON × OFF Value (maize HPPD [2]; Mesotrione): 0.048; OFF ratio (maize HPPD [2]; Tembotrione): 0.037; ON ratio (maize HPPD [2]; Tembotrione): 0.232; ON × OFF Value (maize HPPD [2]; Tembotrione): 0.0087 |
| GE010883: Sorghum bicolor variant HPPD with maize motif substitutions, SEQ ID NO: 459 (protein, HPPD variant) MPPTPTTAAATGAAVAAASAEQAAFRLVGHRNFVRVNPRSDRFHTLAFHHVELWCADAASAAGRFSFGLGAPLAARSDLSTGNTAHASLLLRSGALAFLFTAPYAHGADAATASLPSFSAAEARRFAADHGLAVRAVALRVADAEDAFRASVAAGARPAFEPVELGLGFRLAEVELYGDVVLRYVSYPDDADASFLPGFVGVTSPGAADYGLRRFDHIVGNVPELAPAAAYMAGFTGFHEFAEFTAEDVGTTESGLNSMALANNAENVLLPLNEPVHGTKRRSQIQTYLDHHGGPGVQHIALASDDVLRTLREMQARSAMGGFEFLPPPLSEYYDGVRRCAGDVLTEAQIKECQELGVMVDRDDQGVLLQIFTKPVGDRPTLFLEIIQRIGCMEKDEKGQEYQKGGCGGFGKGNFGQLFKSIEDYEKSLEAKQAAAAQGS | – | – | – | – | – | – | – | – | – | improvement of insensitivity vs native protein (S. bicolor HPPD; mesotrione): 6.13 fold; improvement of insensitivity vs native protein (S. bicolor HPPD; tembotrione): 7.71 fold |
